Entries after “also recorded” stand apart in the source; their conditions may differ.
How the values were obtained:
[1] = biological target: purified and modified human CYP17A1 (Homo sapiens, UniProt P05093); assay: Spectral assay for ligand binding; details: for type of difference spectrum induced: UV-visible difference spectroscopy; for Kd: read-out: Ks (spectral binding constant), 200 nM CYP17A1, 0.1 M potassium phosphate pH 7.4, 20% glycerol, room temperature, means ± SE of 2-4 experiments
[2] = biological target: T1, native human CYP17A1 enzyme in yeast microsomes (Homo sapiens, UniProt P05093); assay: CYP17A1 hydroxylase activity assay; type: biochemical; details: for mode of inhibition: Lineweaver-Burk and Cornish-Bowden plots, progesterone hydroxylation
T1 sequence (P05093 1-508): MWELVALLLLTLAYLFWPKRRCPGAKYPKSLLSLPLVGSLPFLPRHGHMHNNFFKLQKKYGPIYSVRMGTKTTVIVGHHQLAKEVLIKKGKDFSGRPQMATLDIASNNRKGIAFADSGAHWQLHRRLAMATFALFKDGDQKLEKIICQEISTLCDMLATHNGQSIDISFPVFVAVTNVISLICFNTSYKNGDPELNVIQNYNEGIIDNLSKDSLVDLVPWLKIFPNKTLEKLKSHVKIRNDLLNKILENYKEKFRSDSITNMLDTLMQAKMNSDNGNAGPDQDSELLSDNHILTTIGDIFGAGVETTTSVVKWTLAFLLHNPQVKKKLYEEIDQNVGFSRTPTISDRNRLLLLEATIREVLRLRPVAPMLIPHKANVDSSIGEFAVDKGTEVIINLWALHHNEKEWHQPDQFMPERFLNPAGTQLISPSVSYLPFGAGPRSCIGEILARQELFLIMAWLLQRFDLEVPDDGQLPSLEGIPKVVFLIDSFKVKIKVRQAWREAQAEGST

CYP17A1 = CYP17A1 inhibitor; statement in introduction, no reference given; cited from earlier work

| SMILES | type of difference spectrum induced [1] | Ki [2] [µM] | mode of inhibition [2] | Kd [1] [µM] | Type of inhibition ([2]; progesterone as substrate) | mode of inhibition ([2]; listed as Abi) | potency relative to ketoconazole (CYP17A1) |
| --- | --- | --- | --- | --- | --- | --- | --- |
| C[C@]12CC[C@@H](O)C[C@@H]1CC[C@@H]1[C@@H]2CC[C@]2(C)C(c3cccnc3)=CC[C@@H]12 [Compound 5, 17-(3-pyridyl)-5α-androsta-16-ene-3α-ol] | type II difference spectrum | 0.014 | mixed-type inhibitors; also recorded: mixed competitive-noncompetitive inhibition |  |  |  |  |
| C[C@]12CCC(=O)C=C1CC[C@@H]1[C@@H]2CC[C@]2(C)C(c3cccnc3)=CC[C@@H]12 [Compound 11, 17-(3-pyridyl)androsta-4,16-dien-3-one] | type II difference spectrum | 0.022 | mixed-type inhibitors; also recorded: mixed competitive-noncompetitive inhibition |  |  |  |  |
| C[C@]12CC[C@@H](O)C=C1CC[C@@H]1[C@@H]2CC[C@]2(C)C(c3cccnc3)=CC[C@@H]12 [Compound 13, 17-(3-pyridyl)androsta-4,16-dien-3α-ol] | type II difference spectrum | 0.08 | primarily non-competitive inhibition; also recorded: non-competitive inhibitor; also recorded: primarily noncompetitive; also recorded: largely noncompetitive mode of inhibition | 1.66 ± 0.286 | N |  |  |
| C[C@]12CCC(=O)C[C@@H]1CC[C@@H]1[C@@H]2CC[C@]2(C)C(c3cccnc3)=CC[C@@H]12 [Compound 6, 17-(3-pyridyl)-5α-androsta-16-ene-3-one] | type II difference spectrum | 0.007 | mixed-type inhibitors; also recorded: mixed competitive-noncompetitive inhibition |  |  |  |  |
| C[C@]12CC[C@H](O)CC1=CC[C@@H]1[C@@H]2CC[C@]2(C)C(c3cccnc3)=CC[C@@H]12 [Abiraterone, abiraterone, reference compound] | type II difference spectrum | 0.027 |  | 0.0026 ± 0.0032 |  | mixed-type inhibitors | about 20 times |
